The source of these data is BindingDB's records for doi:10.7270/Q2SB4462 (Burnham Center For Chemical Genomics, 2011).

pIC50: −log10 of the molar value.

The target of the assay is T1, Ubiquitin-conjugating enzyme E2 N (Homo sapiens, UniProt P61088).
T1 sequence (P61088 whole entry): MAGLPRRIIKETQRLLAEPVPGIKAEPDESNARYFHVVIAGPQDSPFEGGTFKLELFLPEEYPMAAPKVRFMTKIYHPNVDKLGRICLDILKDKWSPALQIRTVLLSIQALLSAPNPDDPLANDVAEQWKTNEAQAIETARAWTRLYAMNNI
Briefly: concentration-dependent UBC13 chain formation blockade – biochemical, TR-FRET, reconfirmation, dose response (AID 493182). In general terms: Time-resolved FRET reads energy transfer from a long-lived donor to a nearby acceptor.
What is called pIC50 is the negative decadic logarithm of the IC50, by convention in mol/L. `Cc1cccc2c1C(=NNC(N)=S)C(=O)N2C1OC(CO)C(O)C(O)C1O` (stereo not drawn) [The compound has not trivial name.] gave a negative logarithm of the IC50 (pIC50) of 5.34.
In turn, `CCOC(=O)C1C(COC(=O)c2ncc(Cl)c(Cl)c2Cl)=NC(=O)NC1C` (stereo not drawn) showed a negative-log IC50 (pIC50) of 5.03.
Regarding `Cc1cccc(NC(=S)NNC2=c3ccccc3=NC2=O)c1`, the pIC50 was 6.23.
In turn, `Cc1cc(C)c2c(c1)=C(NNC(=S)NCC1CCCO1)C(=O)N=2` (stereo not drawn) gave a pIC50 of 6.29.
For `C#CCOCCOCCOCCNc1nc(N2CCN(C(=O)CCCCCCCCCCNC(=O)[C@@H](CCSC)n3cc(CCO)nn3)CC2)nc(N2CCN(C(=O)CCCCCCCCCCNC(=O)[C@H](CCC(=O)O)n3cc(CCCCCN)nn3)CC2)n1` [MLS002153730] the value was 4.80; for `CCCCNC(=S)N/N=C1\C(=O)Nc2ccccc21` [1-butyl-3-[(2-oxidanylideneindol-3-yl)amino]thiourea], 5.22.
The result for `Oc1c(Cc2cnc[nH]2)[nH]c(=S)n1-c1ccccc1` [MLS001163810] reads 5.40.
`C#CCOCCOCCOCCNc1nc(N2CCN(C(=O)CCCCCCCCCCNC(=O)Cn3cc(C[C@@H](C)O)nn3)CC2)nc(N2CCN(C(=O)CCCCCCCCCCNC(=O)[C@H](CCCN=C(N)N)n3cc(C[C@@H](C)CC)nn3)CC2)n1` [MLS002153601] had a negative logarithm of the IC50 (pIC50) of 5.31.
For `CCNC(=S)NNC1=c2cc(C(C)C)ccc2=NC1=O` [1-ethyl-3-[(2-oxo-5-propan-2-yl-3-indolyl)amino]thiourea] the value was 5.60; for `C#CCOCCOCCOCCNc1nc(N2CCN(C(=O)CCCCCCCCCCNC(=O)Cn3cc(CCCCCN)nn3)CC2)nc(N2CCN(C(=O)CCCCCCCCCCNC(=O)[C@H]([C@@H](C)CC)n3cc(CCCCN=C(N)N)nn3)CC2)n1` [KG-RI], 5.68; for `CCN(CC)CCOC(=O)c1ccc(N=CC(C#N)c2nc(-c3ccc(OC)c(OC)c3)cs2)cc1` (stereo not drawn) [SMR000434079], 5.52.
In turn, `NC(=S)NN=C1C(=O)N(C2OC(=O)c3ccccc32)c2ccccc21` (stereo not drawn) [[(Z)-[2-oxo-1-(3-oxo-1H-isobenzofuran-1-yl)-3-indolylidene]amino]thiourea] gave a pIC50 of 5.62.
Molecule `C#CCOCCOCCOCCNc1nc(N2CCN(C(=O)[C@H](CCCCN)n3cc([C@@H](N)C(C)CC)nn3)CC2)nc(N2CCN(C(=O)[C@H](Cc3cc4ccccc4[nH]3)n3cc([C@@H](N)C(C)CC)nn3)CC2)n1` (stereo partly drawn) [MLS000562580] gave a negative-log IC50 (pIC50) of 5.57.
